As a reminder, the IC50 is the concentration at which inhibition is half-maximal.

Data set [1] deals with HIV-1 NL4–3-HXB2-Luc pseudotyped virus expressing Env of the lab-adapted HIV-1HXB-2 (CXCR4). In kind it is cell-based. Particulars: TZM-bl cells.
In data set [2] the target is HIV-1 Reverse Transcriptase (RT) (Human immunodeficiency virus type 1 group M subtype B, UniProt P04585). In words: Colorimetric Reverse Transcriptase Assay. In kind it is biochemical.
The test system of data set [3] is HIV-1WEAUd15.410.5017 (NIH # 11578), dual-tropic (CCR5/CXCR4) clinical isolate of subtype B. In kind it is cell-based.
Data set [4] relates to control pseudovirus MLV-GP/VSV-G/Luc. Description: microbe, parasite or virus in culture. Type of data set: cell-based.
A short description of data set [5]: in vitro. Particulars: human.
Data set [6] deals with recombinant CD4-dependent HIV-1ADA virus in CD4-negative Cf2Th-CCR5 cells. In kind it is cell-based. Particulars: escalating concentrations.

Like-named read-outs stand apart in the source and are kept apart here.

With `Cl.Cl.NC[C@@H](NC(=O)CNCc1ccc(Cl)cc1)c1ncc(CO)s1` [4(fR), N-(2-amino-1-(5-(hydroxymethyl)thiazol-2-yl)ethyl)-2-((4-chlorobenzyl)amino)acetamide dihydrochloride], in data set [1], the “antiviral activity against HIV-1HXB-2, in words” value was “None of these derivatives showed any appreciable antiviral activity”. Still for that read-out and setting: the entry for `Cl.Cl.NC[C@H](NC(=O)CNCc1ccc(Cl)cc1)c1ncc(CO)s1` [4(fS), N-(2-amino-1-(5-(hydroxymethyl)thiazol-2-yl)ethyl)-2-((4-chlorobenzyl)amino)acetamide dihydrochloride] is “None of these derivatives showed any appreciable antiviral activity”; for `NC[C@@H](NC(=O)c1ccc(C2CCCCC2)[nH]1)c1ncc(CO)s1` [6(fR), N-(2-amino-1-(5-(hydroxymethyl)thiazol-2-yl)ethyl)-5-cyclohexyl-1H-pyrrole-2-carboxamide] it is “poorly actives”; for `NC[C@H](NC(=O)c1ccc(C2CCCCC2)[nH]1)c1ncc(CO)s1` [6(fS), N-(2-amino-1-(5-(hydroxymethyl)thiazol-2-yl)ethyl)-5-cyclohexyl-1H-pyrrole-2-carboxamide] it is “poorly actives”.

Consider `NC[C@@H](NC(=O)c1ccc(OCC2CCCCC2)cc1)c1ncc(CO)s1` [7(fR), N-(2-amino-1-(5-(hydroxymethyl)thiazol-2-yl)ethyl)-4-(cyclohexylmethoxy)benzamide], for which the “antiviral activity against HIV-1HXB-2, in words” value in data set [1] is recorded as “poorly active”. As to `NC[C@H](NC(=O)c1ccc(OCC2CCCCC2)cc1)c1ncc(CO)s1` [7(fS), N-(2-amino-1-(5-(hydroxymethyl)thiazol-2-yl)ethyl)-4-(cyclohexylmethoxy)benzamide], the “antiviral activity against HIV-1HXB-2, in words” value in data set [1] is “poorly active”. On the same count and under the same terms, then `NC[C@@H](NC(=O)c1ccc(NCC2CCCCC2)cc1)c1ncc(CO)s1` [8(fR), N-(2-amino-1-(5-(hydroxymethyl)thiazol-2-yl)ethyl)-4-((cyclohexylmethyl)amino)benzamide], with “poorly active”; and `NC[C@H](NC(=O)c1ccc(NCC2CCCCC2)cc1)c1ncc(CO)s1` [8(fS), N-(2-amino-1-(5-(hydroxymethyl)thiazol-2-yl)ethyl)-4-((cyclohexylmethyl)amino)benzamide], with “poorly active”. Same read-out and setting: then `NC[C@@H](NC(=O)Cc1ccc(OCC2CCCCC2)cc1)c1ncc(CO)s1` [9(fR), N-(2-amino-1-(5-(hydroxymethyl)thiazol-2-yl)ethyl)-2-(4-(cyclohexylmethoxy)phenyl)acetamide], with “no significant antiviral activity”; and `NC[C@H](NC(=O)Cc1ccc(OCC2CCCCC2)cc1)c1ncc(CO)s1` [9(fS), N-(2-amino-1-(5-(hydroxymethyl)thiazol-2-yl)ethyl)-2-(4-(cyclohexylmethoxy)phenyl)acetamide], with “no significant antiviral activity”. For `NCC(NC(=O)c1cc2ccc(Cl)cc2[nH]1)c1nc(CO)cs1` [12(fR), N-(2-amino-1-(4-(hydroxymethyl)thiazol-2-yl)ethyl)-6-chloro-1H-indole-2-carboxamide], in data set [2], the “activity against HIV-1 RT, in words” value was “no activity”. In data set [3], the “antiviral activity against the clinical isolate HIV-1WEAUd15.410.5017, in words” value is reported as “best antiviral activity”. For the same compound, the “activity against control pseudovirus VSV-G, in words” value in data set [4] is on record as “poorly active against VSV-G”. Also, the IC50 in data set [4] (Pseudovirus, U87/CD4/CCR5, read-out: IC50 against VSV-G) was 15.7 ± 1 µM. Moreover, the CC50 in data set [5] was in the range of 83 to 84 µM. In the case of `NCC(NC(=O)c1cc2ccc(Cl)cc2[nH]1)c1nc(CO)cs1` [12(fS), N-(2-amino-1-(4-(hydroxymethyl)thiazol-2-yl)ethyl)-6-chloro-1H-indole-2-carboxamide], the “antiviral activity against the clinical isolate HIV-1WEAUd15.410.5017, in words” value in data set [3] is given as “best antiviral activity”. In addition, the “activity against control pseudovirus VSV-G, in words” value in data set [4] is recorded as “poorly active against VSV-G”. Moreover, in data set [4] (read-out: IC50 against VSV-G), the IC50 worked out at 20.5 ± 0.5 µM. On to `NCC(NC(=O)c1ccc(-c2ccc(Cl)cc2)[nH]1)c1nccs1` [13(fR), N-(2-amino-1-(thiazol-2-yl)ethyl)-5-(4-chlorophenyl)-1H-pyrrole-2-carboxamide], for which the “antiviral activity against the clinical isolate HIV-1WEAUd15.410.5017, in words” value in data set [3] is “best antiviral activity”. Besides, the “activity against control pseudovirus VSV-G, in words” value in data set [4] is “poorly active against VSV-G”. For `NCC(NC(=O)c1ccc(-c2ccc(Cl)cc2)[nH]1)c1nccs1` [13(fS), N-(2-amino-1-(thiazol-2-yl)ethyl)-5-(4-chlorophenyl)-1H-pyrrole-2-carboxamide], in that order: “best antiviral activity” and “poorly active against VSV-G”.

With `O=C(N[C@H](CC1CCNCC1)c1nc(CO)cs1)c1ccc(-c2ccc(C(F)(F)F)cc2)[nH]1` [18(fR), N-(1-(4-(hydroxymethyl)thiazol-2-yl)-2-(piperidin-4-yl)ethyl)-5-(4-(trifluoromethyl)phenyl)-1H-pyrrole-2-carboxamide], the “antiviral activity against HIV-1HXB-2, in words” value in data set [1] is recorded as “low antiviral activity”. Same read-out and setting: the entry for `O=C(N[C@@H](CC1CCNCC1)c1nc(CO)cs1)c1ccc(-c2ccc(C(F)(F)F)cc2)[nH]1` [18(fS), N-(1-(4-(hydroxymethyl)thiazol-2-yl)-2-(piperidin-4-yl)ethyl)-5-(4-(trifluoromethyl)phenyl)-1H-pyrrole-2-carboxamide] is “low antiviral activity”. In the case of `CC1(C)CC(NC(=O)C(=O)Nc2ccc(Cl)cc2)CC(C)(C)N1` [NBD-556, reference compound], in data set [2], the “activity against HIV-1 RT, in words” value is “no activity”. Also, the “relative virus infectivity (enhancement of infection), in words” value in data set [6] is given as “enhanced the infection of the Cf2Th-CCR5 cells in a dose-dependent manner”. For `Cc1cc(-c2ccc(C(F)(F)F)cn2)[nH]c1C(=O)NC(CN)c1ncc(CO)s1` (stereo not shown) [NBD-14270], the “relative virus infectivity (enhancement of infection), in words” value in data set [6] is given as “did not enhance HIV-1 infectivity”. With `NCC(NC(=O)C(=O)NCc1ccc(Cl)c(F)c1)c1ncc(CO)s1` (stereo not shown) [compound 3, N’-[2-amino-1-[5-(hydroxymethyl)thiazol-2-yl]ethyl]-N-[(4-chloro-3-fluorophenyl)methyl]oxamide], the “antiviral activity against HIV-1HXB-2, in words” value in data set [1] is “failed to show any significant antiviral activity”.

Turning to `Cc1nc(C(CN)NC(=O)NC(=O)c2ccc(Cl)cc2)sc1CO` (stereo not shown) [compound 5, N-((2-amino-1-(5-(hydroxymethyl)-4-methylthiazol-2-yl)ethyl)carbamoyl)-4-chlorobenzamide], the “antiviral activity against HIV-1HXB-2, in words” value in data set [1] is given as “failed to show any significant antiviral activity”. Still for that read-out and setting: then `Cc1nc(C(CN)NC(=O)c2cc3ccccc3[nH]2)sc1CO` (stereo not shown) [compound 10, N-(2-amino-1-(5-(hydroxymethyl)-4-methylthiazol-2-yl)ethyl)-1H-indole-2-carboxamide], with “virtually inactive”; and `Cc1nc(C(CN)NC(=O)c2cc3cc(Cl)ccc3[nH]2)sc1CO` (stereo not shown) [compound 11, N-(2-amino-1-(5-(hydroxymethyl)-4-methylthiazol-2-yl)ethyl)-5-chloro-1H-indole-2-carboxamide], with “virtually inactive”. Same read-out and setting: then `NCC(NC(=O)c1cc2ccc(Cl)cc2[nH]1)c1nc(CO)cs1` (stereo not shown) [compound 12, N-(2-amino-1-(4-(hydroxymethyl)thiazol-2-yl)ethyl)-6-chloro-1H-indole-2-carboxamide], with “moderate activity”; and `Cl.NCCNC(=O)c1ccc(-c2ccc(Cl)c(F)c2)[nH]1` [compound 14, N-(2-aminoethyl)-5-(4-chloro-3-fluorophenyl)-1H-pyrrole-2-carboxamide hydrochloride], with “low μM range”. Turning to `O=C(NC1(c2nc(CO)cs2)CCNCC1)c1ccc(-c2ccc(C(F)(F)F)cc2)[nH]1` [compound 17, N-(4-(4-(hydroxymethyl)thiazol-2-yl)piperidin-4-yl)-5-(4-(trifluoromethyl)phenyl)-1H-pyrrole-2-carboxamide], the “antiviral activity against the clinical isolate HIV-1WEAUd15.410.5017, in words” value in data set [3] was “best antiviral activity”.
